The values that follow come from patent US20230141603A1, “BENZODIAZEPINE DERIVATIVES AS GABA A GAMMA1 PAM” (Hoffmann-La Roche Inc., priority 2021, published 2023).

The target of the test is T1, h-GABAA α2β2γ1 (Homo sapiens, UniProt P47869+Q8N1C3).
T1 sequence (P47869 29-451): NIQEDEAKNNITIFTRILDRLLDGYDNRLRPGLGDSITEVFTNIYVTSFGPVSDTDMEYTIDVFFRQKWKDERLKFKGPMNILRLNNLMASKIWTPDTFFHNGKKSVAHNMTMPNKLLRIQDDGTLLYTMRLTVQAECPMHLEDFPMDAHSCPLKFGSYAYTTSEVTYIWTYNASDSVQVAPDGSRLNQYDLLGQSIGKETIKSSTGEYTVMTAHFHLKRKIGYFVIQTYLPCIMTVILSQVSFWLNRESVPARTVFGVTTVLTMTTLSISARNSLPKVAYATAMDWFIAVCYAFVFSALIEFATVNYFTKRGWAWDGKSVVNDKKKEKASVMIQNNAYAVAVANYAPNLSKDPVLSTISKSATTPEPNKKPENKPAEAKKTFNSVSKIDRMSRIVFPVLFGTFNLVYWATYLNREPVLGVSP
T1 sequence (P47870 25-512 partner limits assumed): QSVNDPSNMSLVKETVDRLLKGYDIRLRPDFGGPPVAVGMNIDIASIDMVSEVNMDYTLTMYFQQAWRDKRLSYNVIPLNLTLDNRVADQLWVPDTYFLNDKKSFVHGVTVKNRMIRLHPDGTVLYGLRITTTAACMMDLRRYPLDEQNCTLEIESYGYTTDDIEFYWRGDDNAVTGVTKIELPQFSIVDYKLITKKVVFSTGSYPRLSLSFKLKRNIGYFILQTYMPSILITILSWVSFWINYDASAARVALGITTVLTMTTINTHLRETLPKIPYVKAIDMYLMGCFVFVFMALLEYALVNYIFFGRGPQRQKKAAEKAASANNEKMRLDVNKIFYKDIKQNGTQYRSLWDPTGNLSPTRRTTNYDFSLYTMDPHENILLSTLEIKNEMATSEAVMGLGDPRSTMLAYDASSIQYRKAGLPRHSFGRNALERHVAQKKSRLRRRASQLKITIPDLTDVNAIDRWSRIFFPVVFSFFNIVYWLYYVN
T1 sequence (Q8N1C3 36-465): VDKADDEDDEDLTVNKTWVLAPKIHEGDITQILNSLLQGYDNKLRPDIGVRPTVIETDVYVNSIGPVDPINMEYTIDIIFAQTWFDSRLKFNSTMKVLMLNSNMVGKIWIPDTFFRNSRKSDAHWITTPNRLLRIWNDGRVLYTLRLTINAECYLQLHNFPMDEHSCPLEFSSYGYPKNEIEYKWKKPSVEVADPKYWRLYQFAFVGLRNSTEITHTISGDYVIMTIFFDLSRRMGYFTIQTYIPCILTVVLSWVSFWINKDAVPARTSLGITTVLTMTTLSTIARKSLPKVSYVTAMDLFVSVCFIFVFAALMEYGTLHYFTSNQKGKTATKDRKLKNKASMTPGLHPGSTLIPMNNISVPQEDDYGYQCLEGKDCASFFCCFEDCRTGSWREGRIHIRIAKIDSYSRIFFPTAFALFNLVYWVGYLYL
Put plainly: Two-electrode voltage clamp electrophysiology in Xenopus oocytes, modulation of GABA EC20 current. The note with it: Table 2; for Efficacy (GABA)%: % modulation of GABA EC20 = 100*(Fold increase−1), compound at approx. 30-fold Ki; for Fold increase h-GABA-A α2β2γ1 oocyte @ 30-fold Ki: compound at approx. 30-fold its Ki α2β2γ1, GABA EC20, Xenopus oocytes. The test is classed as cell-based. Details: host or cells: Xenopus laevis oocytes, RNA micro-injection. The procedure: Xenopus laevis oocytes at maturation stages V-VJ were used for the expression of cloned mRNA encoding GABAA receptor subunits. Oocytes ready for RNA micro-injection were bought from Ecocyte, Castrop-Rauxel, Germany and stored in modified Barth's medium (composition in mM: NaCl 88, KCl 1, NaHCO3 2.4, HEPES 10, MgSO4 0.82, CaNO3 0.33, CaCl2 0.33, pH=7.5) at 20° C. until the experiment.
Oocytes were plated in 96-well plates for microinjection using the Roboinject automated instrument (MultiChannelSystems, Reutlingen, Germany). Approximately 50 nL of an aqueous solution containing the RNA transcripts for the subunits of the desired GABAA receptor subtype was injected into each oocyte. […] Oocytes were kept in modified Barth's medium (composition in mM: NaCl 88, KCl 1, NaHCO3 […], HEPES 10, MgSO4 0.82, CaNO3 0.33, CaCl2 0.33, pH=7.5) at 20° C. until the experiment.
Electrophysiological experiments were performed using the Roboocyte instrument (MultiChannelSystems, Reutlingen, Germany) on days 3 to 5 after the micro-injection of mRNA. During the experiment the oocytes were constantly superfused by a solution containing (in mM) NaCl 90, KCl 1, HEPES 5, MgCl2 1, CaCl2 1 (pH 7.4). Oocytes were impaled by two glass microelectrodes (resistance: 0.5-0.8 MΩ) which were filled with a solution containing KCl 1M+K-acetate 1.5 M and voltage-clamped to −80 mV. The recordings were performed at room temperature using the Roboocyte two-electrode voltage clamp system (Multichannelsystem). After an initial equilibration period of 1.5 min GABA was added for 1.5 min at a concentration evoking approximately 20% of a maximal current response (EC20). After another rest interval of 2.5 min GABA was again added evoking a response of similar amplitude and shape. […] Current traces were recorded at a digitization rate of 10 Hz during and shortly before and after the GABA application.
Each compound and concentration was tested on at least 3 oocytes. Different oocytes were used for different compound concentrations.
For the analysis, the digitized current traces of the first and second GABA response were superimposed and, if necessary, rescaled to equal maximal amplitudes. The ratio between the two responses during the time interval of test compound application was calculated point by point. The extremum of the resulting “ratio trace” was taken as the efficacy (“Fold increase”) of the compound expressed as “% modulation of GABA EC20” (100*(Fold increase−1)).

Structures are written as SMILES.

In the case of `Cc1ccc2c(c1Cl)C(c1c(F)cccc1F)=NCc1nnc(C)n1-2` [Example 20, 7-chloro-6-(2,6-difluorophenyl)-1,8-dimethyl-4H-[1,2,4]triazolo[4,3-a][1,4]benzodiazepine], the “Efficacy (GABA)%” value was determined as 57% and the “Fold increase h-GABA-A α2β2γ1 oocyte @ 30-fold Ki” value was determined as 1.57.
Taken in the same sequence, the figures for `CC(F)(F)c1ccc2c(c1Cl)C(c1c(F)cccc1F)=NCc1nncn1-2` [Example 21, 7-chloro-8-(1,1-difluoroethyl)-6-(2,6-difluorophenyl)-4H-[1,2,4]triazolo[4,3-a][1,4]benzodiazepine] were 100% and 2.00.
Taken in the same sequence, the figures for `Cc1nnc2n1-c1ccc(C(C)(F)F)c(Cl)c1C(c1c(F)cccc1F)=NC2` [Example 22, 7-chloro-8-(1,1-difluoroethyl)-6-(2,6-difluorophenyl)-1-methyl-4H-[1,2,4]triazolo[4,3-a][1,4]benzodiazepine] were 86% and 1.86.
The matching figures for `Fc1cccc(F)c1C1=NCc2nncn2-c2ccc(C(F)F)c(Cl)c21` [Example 23, 7-chloro-8-(difluoromethyl)-6-(2,6-difluorophenyl)-4H-[1,2,4]triazolo[4,3-a][1,4]benzodiazepine]: 61% and 1.61.
In the case of `Cc1nnc2n1-c1ccc(Br)c(Cl)c1C(c1ncccc1F)=NC2` [Example 24, 8-bromo-7-chloro-6-(3-fluoro-2-pyridyl)-1-methyl-4H-[1,2,4]triazolo[4,3-a][1,4]benzodiazepine], the “Efficacy (GABA)%” value is recorded as 85% and the “Fold increase h-GABA-A α2β2γ1 oocyte @ 30-fold Ki” value came to 1.85.
The matching figures for `Cc1nnc2n1-c1ccc(C(F)F)c(Cl)c1C(c1c(F)cccc1F)=NC2` [Example 25, 7-chloro-8-(difluoromethyl)-6-(2,6-difluorophenyl)-1-methyl-4H-[1,2,4]triazolo[4,3-a][1,4]benzodiazepine]: 84% and 1.84.
Taken in the same sequence, the figures for `O=c1[nH]nc2n1-c1ccc(Br)c(Cl)c1C(c1ccccc1F)=NC2` [Example 26, 8-bromo-7-chloro-6-(2-fluorophenyl)-2,4-dihydro-[1,2,4]triazolo[4,3-a][1,4]benzodiazepin-1-one] were 45% and 1.45.
As to `Fc1ccccc1C1=NCc2nnc(-c3cccnn3)n2-c2ccc(C(F)(F)F)c(Cl)c21` [Example 27, 7-chloro-6-(2-fluorophenyl)-1-pyridazin-3-yl-8-(trifluoromethyl)-4H-[1,2,4]triazolo[4,3-a][1,4]benzodiazepine], the “Efficacy (GABA)%” value stood at 71% and the “Fold increase h-GABA-A α2β2γ1 oocyte @ 30-fold Ki” value is on record as 1.71.
With `Cn1cc(-c2nnc3n2-c2ccc(Cl)c(Cl)c2C(c2c(F)cccc2F)=NC3)cn1` [Example 28, 7,8-dichloro-6-(2,6-difluorophenyl)-1-(1-methylpyrazol-4-yl)-4H-[1,2,4]triazolo[4,3-a][1,4]benzodiazepine], the “Efficacy (GABA)%” value is recorded as 59% and the “Fold increase h-GABA-A α2β2γ1 oocyte @ 30-fold Ki” value turned out to be 1.59.
On to `Fc1cccnc1C1=NCc2nncn2-c2ccc(Br)c(Cl)c21` [Example 29, 8-bromo-7-chloro-6-(3-fluoro-2-pyridyl)-4H-[1,2,4]triazolo[4,3-a][1,4]benzodiazepine], for which the “Efficacy (GABA)%” value is reported as 105% and the “Fold increase h-GABA-A α2β2γ1 oocyte @ 30-fold Ki” value was 2.05.
For the compound `OCc1nnc2n1-c1ccc(Br)c(Cl)c1C(c1c(F)cccc1F)=NC2` [Example 33, [8-bromo-7-chloro-6-(2,6-difluorophenyl)-4H-[1,2,4]triazolo[4,3-a][1,4]benzodiazepin-1-yl]methanol], the “Efficacy (GABA)%” value was 80% and the “Fold increase h-GABA-A α2β2γ1 oocyte @ 30-fold Ki” value was found to be 1.80.
Taken in the same sequence, the figures for `Fc1cccc(F)c1C1=NCc2nncn2-c2ccc(I)c(Cl)c21` [Example 34, 7-chloro-6-(2,6-difluorophenyl)-8-iodo-4H-[1,2,4]triazolo[4,3-a][1,4]benzodiazepine] were 81% and 1.81.
`Cl.NCc1nnc2n1-c1ccc(Br)c(Cl)c1C(c1c(F)cccc1F)=NC2` [Example 36, [8-bromo-7-chloro-6-(2,6-difluorophenyl)-4H-[1,2,4]triazolo[4,3-a][1,4]benzodiazepin-1-yl]methanamine hydrochloride]: the “Efficacy (GABA)%” value is 33% and the “Fold increase h-GABA-A α2β2γ1 oocyte @ 30-fold Ki” value was 1.33.
Taken in the same sequence, the figures for `Fc1cccc(F)c1C1=NCc2nncn2-c2ccc(C(F)(F)F)c(Cl)c21` [Example 37, 7-chloro-6-(2,6-difluorophenyl)-8-(trifluoromethyl)-4H-[1,2,4]triazolo[4,3-a][1,4]benzodiazepine] were 67% and 1.67.
The matching figures for `Fc1cccc(F)c1C1=NCc2nnc(-c3cccnn3)n2-c2ccc(C(F)(F)F)c(Cl)c21` [Example 38, 7-chloro-6-(2,6-difluorophenyl)-1-pyridazin-3-yl-8-(trifluoromethyl)-4H-[1,2,4]triazolo[4,3-a][1,4]benzodiazepine]: 114% and 2.14.
Taken in the same sequence, the figures for `Fc1cccc(F)c1C1=NCc2nnc(-c3cccnn3)n2-c2ccc(I)c(Cl)c21` [Example 39, 7-chloro-6-(2,6-difluorophenyl)-8-iodo-1-pyridazin-3-yl-4H-[1,2,4]triazolo[4,3-a][1,4]benzodiazepine] were 133% and 2.33.
On to `Cc1nnc2n1-c1ccc(C(F)(F)F)c(Cl)c1C(c1c(F)cccc1F)=NC2` [Example 40, 7-chloro-6-(2,6-difluorophenyl)-1-methyl-8-(trifluoromethyl)-4H-[1,2,4]triazolo[4,3-a][1,4]benzodiazepine], for which the “Efficacy (GABA)%” value was 75% and the “Fold increase h-GABA-A α2β2γ1 oocyte @ 30-fold Ki” value came to 1.75.
Take `Cc1nnc2n1-c1ccc(I)c(Cl)c1C(c1c(F)cccc1F)=NC2` [Example 41, 7-chloro-6-(2,6-difluorophenyl)-8-iodo-1-methyl-4H-[1,2,4]triazolo[4,3-a][1,4]benzodiazepine]: the “Efficacy (GABA)%” value was 70% and the “Fold increase h-GABA-A α2β2γ1 oocyte @ 30-fold Ki” value is listed as 1.70.
